The results in this text go back to patent US11412771B2, “Composition to improve athletic performance by supporting muscle protein synthesis and mental focus” (The Amino Company LLC, priority 2019, dated 2022).

Data set [1] concerns nitric oxide (NO) synthesis. Kind of data set: In vivo kinetics of nitric oxide (NO) metabolism after citrulline ingestion (stable isotope tracer). The arrangement: species or system human. Conditions: 3 grams; for NO synthesis rate after citrulline ingestion: after 3 hours; for De novo arginine synthesis after citrulline ingestion: over 3 hours. The protocol: FIGS. 6A-B depicts graphs showing plasma arginine concentration (FIG. 6A) and nitric oxide (NO) synthesis (FIG. 6B) in human subjects over 3 hours following citrulline ingestion (3 grams) wherein the subjects were either elderly (n=8, 77±9 years of age, 93±4 kg) or young individuals (n=8, 27±9 years of age, 70±5 kg).
EXAMPLE 5. A kinetic study with a stable isotope tracer method was performed to determine in vivo kinetics of nitric oxide (NO) metabolism in relation to citrulline ingestion in older adult humans (n=8, 77±9 years, 93±4 kg) and in young adult humans (n=8, 27±9 years, 70±5 kg). In the fasted state, NO synthesis (expressed per kg fat free mass) was ˜50% lower in older vs. young adults and was related to a decreased rate of appearance of the NO precursor arginine. Citrulline ingestion (3 grams) stimulated de novo arginine synthesis in both older (6.88±0.83 to 35.40±4.90 μmol·kg body wt^−1·h^−1) and, to a greater extent, in young adults (12.02±1.01 to 66.26±4.79 μmol·kg body wt^−1 h^−1) over 3 hours (FIG. 6A). NO synthesis rate increased correspondingly in older (0.17±0.01 to 2.12±0.36 μmol·kg body wt^−1·h^−1) and, to a greater extent, in young adults (0.36±0.04 to 3.57±0.47 μmol·kg body wt^−1·h^−1) after 3 hours (FIG. 6B). […] Because arginine can play a role in stimulating muscle protein synthesis as well as increasing blood flow via NO synthesis, the data strongly support citrulline ingestion for acute as well as long-term promotion of muscle function.

Data set [2] is classed as in vivo, human. The protocol: FIG. 2 depicts a graph showing leucine, lysine, and phenylalanine oxidation in human subjects at rest and during prolonged aerobic exercise (approximately 30% VO2 max for 105 minutes). Error bars represent standard error of mean (SE) assessed via ANOVA.
EXAMPLE 2. […] 1982, 52(2):458-66 and Wolfe et al., J APPL PHYSIOL RESPIR ENVIRON EXERC PHYSIOL. 1984, 56(1):221-9, both the disclosures of which are herein incorporated by reference in their entirety. Total leucine oxidation increased from 0.38±0.05 to 1.41±0.14 μmol·kg^−1·min^−1 during exercise due to increases in the oxidation of plasma leucine (150%) and intracellular leucine (600%) (FIG. 2). […] These findings provided a rational for providing extra leucine, as well as other branched chain amino acids, before exercise.

Like-named read-outs stand apart in the source and are kept apart here.

For the molecule `NC(=O)NCCC[C@H](N)C(=O)O` [Citrulline, citrulline], the “NO synthesis rate after citrulline ingestion” value amounted to 2.12±0.36 μmol·kg body wt^−1·h^−1 in data set [1] (older adults, basal 0.17±0.01) and 3.57±0.47 μmol·kg body wt^−1·h^−1 in data set [1] (young adults, basal 0.36±0.04). Moreover, the “De novo arginine synthesis after citrulline ingestion” value in data set [1] (older adults, basal 6.88±0.83) is recorded as 35.40±4.90 μmol·kg body wt^−1·h^−1; in data set [1] (young adults, basal 12.02±1.01), 66.26±4.79 μmol·kg body wt^−1 h^−1.

In turn, `CC(C)C[C@H](N)C(=O)O` [leucine] returned a Total leucine oxidation in data set [2] (human, in vivo) of 0.38 ± 0.05 µmol/kg/min. Also, in data set [2] (human, in vivo, 105 min), the “Increase in the oxidation of intracellular leucine” value is on record as 600%, the “Increase in the oxidation of plasma leucine” value is on record as 150% and the Total leucine oxidation was 1.41 ± 0.14 µmol/kg/min. The Plasma leucine flux entry in data set [2] (not told) was “decreased slightly, but not significantly”.

Regarding `NCCCC[C@H](N)C(=O)O` [lysine], the “Oxidation, change from rest to exercise” value in data set [2] (in vivo) is reported as “did not change significantly”.

In the case of `N[C@@H](Cc1ccccc1)C(=O)O` [phenylalanine], in data set [2] (in vivo), the “Oxidation, change from rest to exercise” value is on record as “did not change significantly”.
